From patent US8703736B2, “Therapeutic target for pancreatic cancer cells” (The Translational Genomics Research Institute, priority 2011, dated 2014)
Like-named read-outs stand apart in the source and are kept apart here.

Key:
[1] = tested on: co-culture of human pancreatic cancer-derived fibroblasts and SU8686 cells; experiment: Co-culture stained for cytokeratin and αSMA (FIG. 12); type: cell-based; details: 72 hours
Description: Fasudil inhibits stellate cell proliferation and function: The effects of fasudil on the proliferation and expansion of the stromal compartment in a co-culture of human pancreatic cancer-derived fibroblasts and SU8686 cells were compared. […] Subsequently, cells were fixed and stained for the epithelial cell marker, cytokeratin, in green, and αSMA, in red.

MiaPaca2 = experiment: Drug dose-response curves, cell proliferation, MiaPaca2; type: cell-based; details: Homo sapiens, read-out: ROCK1 inhibition, IC50 values
Procedure: (§1) Efficacy of ROCK inhibition evaluated by drug dose-response curves: The small molecule ROCK1 inhibitors, fasudil and Y27632, were analyzed for their effects in pancreatic cancer cell lines. Drug dose-response curves were created to assess the efficacy of ROCK inhibition at 72 hours of drug exposure. FIG. 5A presents the drug dose-response curves for fasudil exposure in MiaPaca, Su8686, Panc-1 and CW1 cell line cells. FIG. 5B presents the drug dose-response curves for Y-27632 exposure in the same above mentioned cell lines. Gemcitabine, a nucleoside analog, replaces one of the building blocks, cytidine, during DNA replication and thus arrests tumor growth, which leads to cell death. Gemcitabine is shown for reference as illustrated in FIG. 5C.

Su8686 = experiment: Drug dose-response curves, cell proliferation, Su8686; type: cell-based; details: Homo sapiens
Procedure: as §1

Panc-1 cells [2] = experiment: SRB (Sulphorhodamine) cell viability assay with fasudil; type: cell-based, human
Procedure: To further study the effects of fasudil at these concentrations on growth, an SRB (Sulphorhodamine) cell viability assay was performed. […] In both FIGS. 6A and 6B, “UT” stands for untreated; and “SFM” stands for serum-free media.

[3] = tested on: collagen 1 in CW1 myofibroblasts and SU8686 cells; experiment: Collagen 1 expression in single and co-cultures, dot blot (FIG. 8); type: cell-based, human
Procedure: Fasudil reduces collagen synthesis in co-cultured pancreatic cells: The effects of fasudil on the expression of collagen 1 in single and co-cultures of human myofibroblasts and SU8686 cells were examined. These cells were seeded and then treated with fasudil for 72 hours at the concentrations indicated. Treatment conditions are shown at top of the figure panel, and standard curve concentrations are shown below the figure panel (FIG. 8A). Calibrated collagen concentrations were shown in FIG. 8B (20 μg total protein loaded per sample). […] Fasudil inhibits collagen expression in cultured human stellate cells: The analysis of collagen expression in cultured human stellate cells exposed to Fasudil was carried out using quantitative PCR analysis of Collagen 1 mRNA levels.

[4] = tested on: Collagen 1 mRNA in cultured human stellate cells; experiment: Quantitative PCR analysis of Collagen 1 mRNA levels (FIG. 11); type: cell-based; details: highest concentration of fasudil (100 μm)
Procedure: Fasudil inhibits collagen expression in cultured human stellate cells: The analysis of collagen expression in cultured human stellate cells exposed to Fasudil was carried out using quantitative PCR analysis of Collagen 1 mRNA levels.

Panc-1 cells [5] = experiment: Modified Boyden Chamber Assay, cell migration; type: cell-based, human; details: at both 500 μM and 20 μM
[6] = tested on: co-culture of human pancreatic cancer-derived myofibroblasts and SU8686 cells; experiment: Co-culture stained for aSMA and collagen 1 (FIG. 7); type: cell-based; details: 72 hours
CW1 = experiment: Drug dose-response curves, cell proliferation, CW1; type: cell-based; details: Homo sapiens, read-out: ROCK1 inhibition, IC50 values
Procedure: as §1

PDA cell proliferation = experiment: Inhibition of PDA cell proliferation (summary over cell lines); type: cell-based; details: Homo sapiens; range over cell lines of TABLE 2; 72 hours; read-out: IC50s range, inhibition of PDA cell proliferation
Procedure: as §1

Panc-1 = experiment: Drug dose-response curves, cell proliferation, Panc-1; type: cell-based; details: Homo sapiens, read-out: cell proliferation, IC50 values
Procedure: as §1

[7] = MIA PaCa-2, MiaPaca2 cell line, 72 hours of drug exposure
[8] = SU.86.86, Su8686 cell line, 72 hours of drug exposure, read-out: ROCK1 inhibition, IC50 values
[9] = CW1 cell line, 72 hours of drug exposure
[10] = Panc-1 cell line, 72 hours of drug exposure, read-out: ROCK1 inhibition, IC50 values

Row | Structure (SMILES) | inhibition of aSMA expressing cells (stellate cells) ([1]; 50 μM, 25 μM, and 12 μM) | cell proliferation of both cancer cells and stellate cells relative to untreated ([1]; 100 μM) | IC50 (MiaPaca2; [7]) [µM] | IC50 (Su8686; [8]) [µM] | cytotoxicity (Panc-1 cells [2]; 20 μM) | cell survival (Panc-1 cells [2]; 500 μM, 24 hours) [%] | collagen synthesis relative to the untreated sample ([3]; 100 μM, 50 μM, and 25 μM, 72 hours) | collagen expression, dot blot on protein lysates ([3]; monocultured stellate cells (CW1) and co-cultured tumor/stellate cells (CW1/SU8686), 6-100 μm) | collagen expression (Collagen 1 mRNA) [4] | migrating cells relative to serum (chemoattractant) containing media control (Panc-1 cells [5]) | inhibition of aSMA and collagen 1 expressing myofibroblasts ([6]; 50 μM, 25 μM, and 12 μM) | cell proliferation of both cancer cells and myofibroblasts relative to untreated ([6]; 100 μM) | IC50 (CW1; [9]) [µM] | IC50 (PDA cell proliferation) [µM] | IC50 (Panc-1; [10]) [µM] | IC50 (MiaPaca2; MIA PaCa-2, 72 h) [µM] | IC50 (Su8686; SU.86.86, 72 h) [µM] | IC50 (CW1; 72 h) [µM] | IC50 (Panc-1; PANC-1, 72 h) [µM]
1 | O=S(=O)(c1cccc2cnccc12)N1CCCNCC1 [Fasudil, 5-(1,4-diazepan-1-ylsulfonyl)isoquinoline] | selectively inhibited | significant reduction in cell proliferation | 55 | 71.2 | no significant cytotoxicity | 50.3 | significant reduction in collagen synthesis | Decreased collagen expression | three-fold decrease in collagen expression | significant reduction in migrating cells | selectively inhibited | significant reduction in cell proliferation | 66 | 6 to 71 | > 100 | – | – | – | –
2 | Nc1ccn([C@@H]2O[C@H](CO)[C@@H](O)C2(F)F)c(=O)n1 [Gemcitabine] | – | – | 0.056 | 0.017 | – | – | – | – | – | – | – | – | > 100 | – | > 100 | – | – | – | –
3 | CC(N)C1CCC(C(=O)Nc2ccncc2)CC1 (stereo not drawn) [Y27632, 4-(1-aminoethyl)-N-pyridin-4-yl-cyclohexane-1-carboxamide] | – | – | – | – | – | – | – | – | – | – | – | – | – | 6 to 71 | – | 6.8 | 27.9 | 6.4 | > 100
